Where no end group is shown, it is not given here.
What was measured:
[1] = In vitro human plasma stability of GLP-1 CM peptides; details: 20 ng/ml peptide, 37° C., 3 hours, GLP-1 (Active) ELISA, versus native GLP-1(7-37)
Excerpt: Dipeptidylpeptidase activity of the plasma was inhibited by an DPP-IV inhibitor (#DPP4, Biotrend).

[2] = tested on: C57BL/KsJ@Rj-db (db/db) mice; experiment: Long-term treatment of db/db mice; type: in vivo, mouse; details: for non fasted blood glucose level 1h after s.c. peptide injection, compared to control: tail bleed 1 hour after injection; for fasted blood glucose level 18h after peptide injection: 12-hour overnight fast, 18 hours after s.c. injection; for food consumption: weekly, 122 day treatment period, compared to the control
Excerpt: The regimen was continued for 18 weeks. From week 12 to 18 treatment was done twice a day in 6 of 12 animals per group. Various parameters of the mice were investigated, i.e. health status (1), body weight (2), food consumption (3), blood glucose (4), glucose tolerance test (5), insulin data (6), glycosylated hemoglobin (7), pathology (8), and restimulation of T cells (9). • Health status (1) was good in all groups, no side effects of the treatment have been seen. • Body weight (2) was lower in all treated groups after 18 weeks of treatment (FIG. 9). […] The relative body weight increase of 12 animals per group after a treatment of 122 days is plotted. […] Non-fasted blood glucose level (1 hour after peptide injection) is shown in FIG. 11A, i.e. the effect of a treatment with saline (A), CM1 (B), CM3-ANA01 (C) or exendin (D) on the non-fasted blood glucose levels. Blood glucose was measured from a tail bleed 1 hour after s.c. injection of saline (A) or the peptides CM1 (B), CM3-ANA01 (C) or exendin (D) in a concentration of 24 nmol/kg. Compared to control non fasted blood glucose level 1h after s.c. peptide injection is reduced to 55% in group B, 51% in group C and 60% in group D (FIG. 11B). The blood glucose decrease in the treated groups treated groups is highly significant (p<0.0001). Fasted blood glucose level (18 hours after peptide injection) are shown in FIG. 11C, i.e. the effect of a treatment with saline (A), CM1 (B), CM3-ANA01 (C) or exendin (D) on the fasted blood glucose levels. Blood glucose was measured from a tail bleed after a 12-hour overnight fast 18 hours after s.c. injection of the test substances. Fasted blood glucose level 18h after peptide injection is reduced in the CM1 and CM3-ANA01 group. • An i.p. glucose tolerance test (5) (IPGTT) was conducted after 8 weeks of treatment on mice of the groups A-D. […] Blood glucose has been further on determined 15, 30, 45, 60, 90 and 120 minutes after glucose injection. A significant normalization of glucose tolerance was shown in all treated groups (FIG. 12A). In FIG. 12A absolute blood glucose levels during an i.p. glucose tolerance test (IPGTT) after 8 weeks of treatment with saline (A), CM1 (B), CM3-ANA01 (C) or exendin (D) is shown (mean values of each group (n=12)). • Another presentation of the data presented by FIG. 12A of the blood glucose tolerance test is given in FIG. 12B. Relative blood glucose levels during an i.p. glucose tolerance test (IPGTT) after 8 weeks of treatment with saline (A), CM1 (B), CM3-ANA01 (C) or exendin (D) normalized on the starting blood glucose level (100%). • Insulin levels (6) were determined from mice after a 12 hour overnight fastening period. […] Directly after sampling blood samples have been treated with a protease inhibitor cocktail to avoid insulin degradation. The serum was analysed for insulin with the Insulin Mouse Ultrasensitive ELISA (Cat.# EIA-3440, DRG). Significance has been determine with Student's t-test. • Glycosylated hemoglobin (7) is formed by excess plasma glucose binding to hemoglobin in red blood cells (RBC). Since RBCs have a 120-day lifespan, measurements of the glycolylated hemoglobin gives a longer-term indication of glucose control and is seen as a better indicator than plasma glucose levels. Whole blood was collected from the retro-orbital sinus and analyzed with the Enzymatic HbA1c Test Kit (#DZ121A, Diazyme) to determine the glycosylated hemoglobin levels. […] The mean value of all animals per group (n=12) is given. […] Therefore, the spleen of 8 animals per group was explanted, T-cells isolated and restimulated with different concentrations of the corresponding test substance. Compared to non-treated controls no significant increase in peptide restimulated T-cell proliferation was found. […] The stimulation index (SI) was calculated as the quotient of the response in the presence of the respective peptide and the response in the absence of peptides. […]

[3] = In vitro plasma stability, kinetic test method; details: 1 μM peptide, 10% human plasma, 37° C., 0-9 hours
Excerpt: (§1) Results are from triplicates in at least two independent experiments.

[4] = tested on: diabetic C57BL/KsJ@Rj-db (db/db) mice; experiment: Dose-efficacy study in diabetic mice; type: in vivo, mouse; details: for fall in plasma glucose @1 h: 1 hour after single s.c. injection of 1.1-3.0 nmol peptide; for fall in plasma glucose @1 h / fall in plasma glucose @4 h: versus control; for fall in plasma glucose @4 h: 4 hours after single s.c. injection of 1.1-3.0 nmol peptide; for plasma glucose ED50: single s.c. dose, percentage decrease of blood glucose at 1h
Protocol: A sixth group was treated with saline only. 7 animals were treated per group. Blood glucose was determined from tail bleeds directly before, 1 hour and 4 hours after injection.
The results are shown in dose-response curves according to FIG. 8 (FIG. 8A (GLP-1), FIG. 8B (CM1), FIG. 8C(CM3) and FIG. 8D (CM3-ANA01)). For every test substance a graph was prepared with the percentage difference of the blood glucose in relation to the start value for the different concentrations. […] Both models are sigmoidal fit models suitable for dose response evaluation. For every peptide the plasma glucose ED50 values (single s.c. dose in μg/mouse) have been determined from the percentage decrease of blood glucose.
The fall in plasma glucose and the corresponding significance levels are given for the time period 1 hour (@1 h) and 4 hours (@4h) after peptide injection. Differences have been observed in the long-term efficacy of the peptides.

[5] = human, 1 μM, pH 7.8
Excerpt: as §1

[6] = tested on: type II diabetic mice (C57BUKs-Lepr db/db); experiment: In vivo bioactivity in type II diabetic mice; parameters: species or system mouse; details: 5 μg peptide s.c. twice a day, Day 2, 4, 7, 10, overnight fasted
Protocol: 11-week-old type II diabetic mice (C57BUKs-Lepr^db/db, Harlan) were treated with 5 μg peptide by subcutaneous injection twice a day at 9 a.m. and 5 p.m. (n=5 per group).
Blood glucose was measured before (day 0) and after treatment with GLP^CM peptides (Day 2, 4, 7, 10) at 10 a.m. after an overnight fastening period. Data were presented in relation to blood glucose levels measured at day 0.
Best results were obtained with recombinant SEQ ID No.:6 (CM1) and synthetic SEQ ID No.:8 (CM3). In FIG. 5 (y-axis) the relative effect of the treatment is shown. Blood glucose at day=0 was set to 1. Untreated animals undergo continuous increase in blood glucose level over time, whereas animals treated with inventive peptides display grosso modo a continuous decrease of the blood glucose level over time.

BALB/c mice = experiment: Immunogenicity study in BALB/c mice
Protocol: The trial was done in BALB/c mice receiving 5 repeated injections (70 μg peptide/dose, i.v.) over 22d (n=5).
Spleens of the treated and control mice were explanted, T-cells isolated and stimulated with increasing amounts of antigene. Proliferative recall response is measured.

[7] = 5 repeated injections, 70 μg peptide/dose, i.v., over 22d, BALB/c mice

| Substance | stability in human plasma in vitro (active GLP) [1] | non fasted blood glucose level 1h after s.c. peptide injection, compared to control ([2]; 24 nmol/kg s.c.) [%] | fasted blood glucose level 18h after peptide injection [2] | relative body weight increase ([2]; after a treatment of 122 days, 24 nmol/kg s.c., p<0.001) | food consumption ([2]; p<0.001) | in vitro plasma stability, comparison in words [3] | fall in plasma glucose @1 h [4] | fall in plasma glucose @4 h [4] | plasma glucose ED50 [4] [μg/mouse] | active GLP-1 left after 9h plasma exposure, % of the 0 h value [5] [%] | anti-hyperglycemia effect (blood glucose in relation to day 0) ([6]; listed as SEQ ID No.:6) | anti-hyperglycemia effect (blood glucose in relation to day 0) ([6]; listed as recombinant SEQ ID No.:6) | T-cell antibody response and antibody titer (BALB/c mice; [7]) | toxicity (BALB/c mice; [7]) | clinically relevant immunogenicity (BALB/c mice; immunogenicity study in mice) |
| --- | --- | --- | --- | --- | --- | --- | --- | --- | --- | --- | --- | --- | --- | --- | --- |
| HAEGTFTSDVSSYLEGQAAKEFIAWLVKGRGRRDFPEEVAIAEELG [CM3, GLP-1(7-37)-IP2] | significantly stabilized |  |  |  |  |  |  |  |  |  |  |  |  |  |  |
| HAEGTFTSDVSSYLEGQAAKEFIAWLVKGRGAADFPEEVAIAEELG [CM3-ANA01] |  | 51 | reduced | significantly lower | significantly lower | higher plasma stability than CM3 | 62% ± 12% @1 h | 18% ± 11% @4 h | 0.55 | 84 |  |  |  |  |  |
| GLP-1 (7-37)-IP2-RR-GLP1(7-37) [CM1] | significantly stabilized | 55 | reduced |  | significantly lower |  | 50% ± 14% @1 h | 0% @4 h | 0.61 |  | anti-hyperglycemia effect | Best results | minimal | no toxicity | absence of any clinically relevant immunogenicity |
